Reference: paper PMC11520566, “Discovery of pyrazole-based analogs as CDK2 inhibitors with apoptotic-inducing activity: design, synthesis and molecular dynamics study” (RSC Advances, 2024)

How the values were obtained:
[1] = tested on: SR; assay: NCI 60 five dose assay, Leukemia; format: cell-based, human
[2] = tested on: EKVX; assay: NCI 60 five dose assay, Non-small cell lung cancer; format: cell-based, human
[3] = tested on: HOP-62; assay: NCI 60 five dose assay, Non-small cell lung cancer; format: cell-based, human
[4] = tested on: OVCAR-3; assay: NCI 60 five dose assay, Ovarian cancer; format: cell-based, human
[5] = tested on: A498; assay: NCI 60 five dose assay, Renal cancer; format: cell-based, human
[6] = target: T1, CDK2/cyclin A2 (Homo sapiens, UniProt P24941); assay: In vitro CDK2/cyclin A2 enzyme inhibition assay (ADP-Glo); format: biochemical
T1 construct: purchased Promega
Experimental: The studied pyrazoles 2a–g, 4, 7a–d, 8a and b, 9, and 10 were assessed for their in vitro CDK2/cyclin A2 enzyme inhibition assay at a concentration of 50 μM using the Promega CDK2/cyclinA2 kinase enzyme system coupled with the ADP-Glo assay.[32,33] The percentage enzyme activity was the lowest for five compounds, namely 4, 7a, 7d, 8a, and 9 with values of 24.7%, 17.5%, 11.5%, 27.1% and 14.5%, respectively.
The in vitro assay of CDK2/cyclin A2 protein kinase was carried out on all the synthesized compounds. The kinase assay was performed in a 96-well white plate with a reaction volume of […]. The reaction was performed in four steps as follows: 2.5 μL of the test compounds or 5% DMSO and 5 μL of CDK2/cyclin A2 enzyme (1.6 ng) was added, and then incubated at room temperature for 30 min. Then, 5 μL of 50 μM ATP. 0.1 μg μL^−1 histone H1 was added and incubated for 10 min. The reaction was stopped by adding 12.5 μL of ADP-Glo™ Reagent and incubated for 40 min. Then 25 μL of kinase detection reagent was added to each well and incubated for 60 min before detection with luminescence (Integration time 0.5–1 s).[25,32,33]

[7] = tested on: CCRF-CEM; assay: NCI 60 single dose screen, Leukemia; format: cell-based, human; details: single dose 10 μM
Experimental: (§1) The newly synthesized pyrazoles 2a–g, 7a–d, 8a and b, 9, and 10 were submitted to the National Cancer Institute (NCI) Developmental Therapeutics Program (http://www.dtp.nci.nih.gov) for assessment of their potential antiproliferative activity against a panel of NCI 60 cancer cell lines. All compounds were approved for screening against the approved 60 cancer cell lines at a single dose of 10 μM. The human cancer cell lines were derived from 9 variant cancer types including leukemia, melanoma, lung, colon, CNS, ovarian, renal, prostate and breast cancers. The results are presented as percentage of growth inhibition (GI%) of the screened compounds against the full panel of cell lines.
(§2) Under sterile conditions, the cell lines were grown in RPMI 1640 media (Gibco, NY, USA) supplemented with 10% fetal bovine serum (Biocell, CA, USA), and […] cell/mL was used to test the growth inhibition activity of the synthesized compounds. The compounds with concentrations ranging from 0.01 to 100 μM were prepared in phosphate buffer saline. Each compound was initially solubilized in dimethyl sulfoxide (DMSO); however, each final dilution contained less than 1% DMSO. Solutions of different concentrations (0.2 mL) were pipetted into the separate well of a microtiter tray in duplicate. Cell culture (1.8 mL) containing a cell population of […] cells per mL was pipetted into each well. Controls, containing only phosphate buffer saline and DMSO at identical dilutions, were also prepared in the same manner. These cultures were incubated in a humidified incubator at 37 °C. The incubator was supplied with 5% CO2 atmosphere. After 48 h, the cells in each well were diluted 10 times with saline and counted using a Coulter counter. The counts were corrected for the dilution.[34]

[8] = tested on: RPMI-8226; assay: NCI 60 single dose screen, Leukemia; format: cell-based, human; details: single dose 10 μM
Experimental: as §1, §2

[9] = tested on: UACC-257; assay: NCI 60 single dose screen, Melanoma; format: cell-based, human; details: single dose 10 μM
Experimental: as §1, §2

[10] = tested on: CDK2; assay: Western blot of CDK2 expression in HCT-116 cells; format: cell-based; details: 3 μM, 48 h, vs vehicle treated cells
Description: The method of sodium dodecyl sulfate polyacrylamide gel electrophoresis (SDS-PAGE) is employed to separate proteins based on their size. When combined with western blotting (immunoblotting), both techniques are commonly used to identify the presence and/or relative abundance of a specific protein within a sample containing a complex mixture of proteins.[36] In this process, each sample's total protein content is loaded onto a gel and separated by electrophoresis, allowing proteins to migrate through the gel matrix under the influence of an electric current. To facilitate protein migration, the proteins are initially denatured and given a negative charge by exposure to a detergent like SDS. A molecular weight marker with known-sized bands assists in identifying proteins of interest. […] Typically, the secondary antibody is linked to an enzyme that generates luminescence upon reacting with its substrate. The intensity of the luminescence, directly correlating with the amount of protein that interacted with the antibody, is captured by a Bio-Rad Imager.[36] […]
HCT-116 cells were treated with either 3 μM of compound 4 and 1 μM of compound 9 and incubated 48 h. The cells were lysed by 1× RIPA buffer containing protease and phosphatase inhibitors to quantify the protein concentration by BCA protein assay. […]

[11] = Homo sapiens, read-out: LC50 (the source's name)

CC(=NNc1ccc(S(N)(=O)=O)cc1)c1ccc(NN=C2C(=O)NN=C2Nc2ccccc2)cc1 [Compound 4, 4-(2-(1-(4-(2-(5-oxo-3-(phenylamino)-1,5-dihydro-4H-pyrazol-4-ylidene)hydrazinyl)phenyl)ethylidene)hydrazinyl)benzene sulfonamide]
GI50 ([1]; Homo sapiens): 1.74 µM
CC50 [1, 11]: 23.6 µM
Percent Growth ([1]; Log10 Concentration -4.0 Molar): -87%
Percent Growth ([1]; Log10 Concentration -5.0 Molar): -28%
Percent Growth ([1]; Log10 Concentration -6.0 Molar): 75%
Percent Growth ([1]; Log10 Concentration -7.0 Molar): 93%
Percent Growth ([1]; Log10 Concentration -8.0 Molar): 85%
GI50 ([2]; Homo sapiens): 5.39 µM
CC50 [2, 11]: > 100 µM
Percent Growth ([2]; Log10 Concentration -4.0 Molar): -48%
Percent Growth ([2]; Log10 Concentration -5.0 Molar): 36%
Percent Growth ([2]; Log10 Concentration -6.0 Molar): 89%
Percent Growth ([2]; Log10 Concentration -7.0 Molar): 102%
Percent Growth ([2]; Log10 Concentration -8.0 Molar): 98%
GI50 ([3]; Homo sapiens): 2.05 µM
CC50 [3, 11]: 30.3 µM
Percent Growth ([3]; Log10 Concentration -4.0 Molar): -78%
Percent Growth ([3]; Log10 Concentration -5.0 Molar): -24%
Percent Growth ([3]; Log10 Concentration -6.0 Molar): 84%
Percent Growth ([3]; Log10 Concentration -7.0 Molar): 95%
Percent Growth ([3]; Log10 Concentration -8.0 Molar): 91%
GI50 ([4]; Homo sapiens): 1.87 µM
CC50 [4, 11]: 12.5 µM
Percent Growth ([4]; Log10 Concentration -4.0 Molar): -100%
Percent Growth ([4]; Log10 Concentration -5.0 Molar): -45%
Percent Growth ([4]; Log10 Concentration -6.0 Molar): 86%
Percent Growth ([4]; Log10 Concentration -7.0 Molar): 89%
Percent Growth ([4]; Log10 Concentration -8.0 Molar): 82%
GI50 ([5]; Homo sapiens): 11.4 µM
CC50 [5, 11]: 94.7 µM
Percent Growth ([5]; Log10 Concentration -4.0 Molar): -53%
Percent Growth ([5]; Log10 Concentration -5.0 Molar): 56%
Percent Growth ([5]; Log10 Concentration -6.0 Molar): 87%
Percent Growth ([5]; Log10 Concentration -7.0 Molar): 87%
Percent Growth ([5]; Log10 Concentration -8.0 Molar): 77%
percentage enzyme activity ([6]; at 50 μM): 24.7%
IC50 ([6]; n = 3, read-out: IC50 against CDK2/cyclin A2): 3.82 µM
Relative activity ([6]; supplement S1, DMSO = 100, screen at 50 μM): 24.7
GI% [7]: 96.41%
GI% [8]: 96.53%
GI% [9]: 94.37%
expression of CDK-2 (western blot) [10]: inhibitions in the expression of CDK-2
